Results on one compound are retold here after patent publication US11185527B2, “Methods and compositions relating to steroid hormone receptor-dependent cancers” (Wayne State University, priority 2017, dated 2021).

Series [1] deals with AR target genes in 22Rv1 CRPC cells. Kind of series: Real time RT-PCR of AR target gene mRNAs in 22Rv1 cells. In kind it is cell-based, human. The conditions noted are these: 22Rv1, 10 μM, 72h. Here is the method: FIG. 3D is a graph showing that in 22Rv1 cells were treated with 10 μM of KCI807 for 72h and real time RT-PCR was used to measure mRNAs for the indicated panel of genes tested in FIG. 3B and FIG. 3C.
Total RNA was isolated from cells using the RNeasy Mini Kit (Qiagen). Reverse transcription PCR was then performed using 500 ng of total RNA with random primers and using the high-capacity complementary DNA Archive kit (Applied Biosystems). The complementary DNA from this reaction was measured using quantitative real time PCR using the StepONE Plus Real Time PCR system (Life Technologies Corporation, Carlsbad, Calif.). All reactions were performed in triplicate and normalized to glyceraldehyde-3-phosphate-dehydrogenase values in the same samples. All primers and Taqman probes were purchased from the applied Biosystems inventory (Invitrogen)
To test the selectivity of KCI807 for ELK1-dependent gene activation by AR vs. other target genes of the receptor, 22Rv1 CRPC cells, which are dependent on both full length AR and AR-V7 for hormone-independent growth, were used. […]

Series [2] in a line: Metabolism in pooled human liver microsomes (HLM) with or without NADPH. In kind it is in vitro ADME. Particulars: HLM 0.05 mg/ml, 30 minutes, 37° C. Here is the method: BD UltraPool human liver microsomes (HLM) 150 and the NAPDH regenerating system solution A and B were obtained from Corning Inc. Pooled HLM were used to determine percentage of metabolism of 5,3′-Dihydroxyflavone and 5,3-Dihydroxy-4′-methylflavone. The compounds (20 μM) were co-incubated with HLM (0.05 mg/ml) in the presence or absence of NAPDH for 30 minutes in a 37° C. water bath. At the end of the microsome reaction, the reaction was quenched with 1000 μl ethyl acetate. The mixture was vortexed and centrifuged at 13,000 rpm for 15 minutes, the supernatant was then subjected to high-performance liquid chromatography with tandem mass spectrometry ([…]) analysis.
(Microsomes from liver hold many membrane-bound enzymes, among them those of drug oxidation.)

Series [3] relates to hormone-independent promoter activation by the splice variant AR-V7. Kind of series: Gal4-ELK1 reporter activation by AR-V7 in transfected HeLa cells. The format is cell-based. The conditions noted are these: 10 uM or 20 uM. Here is the method:
FIG. 10 is a graph showing results of co-transfection of HeLa cells with the Gal4-TATA-Luc construct and the Gal4-ELK1 fusion protein expression plasmid. The cells were also co-transfected with either the AR-V7 expression plasmid (pLVX-AR-V7) or the corresponding vector plasmid (pLVX). At the time of transfection with AR-V7, the cells were also treated with KCI807 (10 uM or 20 uM) or with the vehicle control. Promoter activity was measured in terms of reporter luciferase activity. In all panels, the error bars represent standard deviation of experimental triplicates. *P<0.05
Hela Cells were plated in a 24-well plate at a concentration of 75,000 cells/well in antibiotic-free red DMEM. The following day the cells were transfected with a total of 300 ng of plasmid DNA/well using Lipofectamine 2000. The cells were incubated for 24h then lysed using luciferase assay lysis buffer 5X from Promega. The luciferase activity of the cell lysates were measured using firefly substrate from Promega and a luminometer (Lumat LB9501, Berthold, Wildbad, Germany).
The relatively higher concentrations of the compound required for this inhibition is likely because AR-V7 was overexpressed in the assay system.

Where “and” joins values, the source holds several entries; their conditions need not be identical. Identical values can stand only once.

Turning to `O=c1cc(-c2cccc(O)c2)oc2cccc(O)c12` [KCI807, 5,3′-dihydroxyflavone], in series [1], the “effect on mRNA of AR target genes” value is “decreased expression of only the genes known to be supported synergistically by ELK1 and AR”. Further, in series [2], the “compound concentration after HLM incubation, Control (absence of NADPH), replicate” value is 973 nM and 981 nM and 1006 nM; the “compound concentration after HLM incubation, NADPH treated, replicate” value is 796 nM and 725 nM and 863 nM; the “mean compound concentration, Control (absence of NADPH)” value came out at 986 nM; the “mean compound concentration, NADPH treated” value was determined as 795 nM. Besides, the “percentage metabolized (%)” value in series [2] (NADPH) was determined as 19.4%. Besides, the “inhibition of promoter activation by AR-V7” value in series [3] is listed as “inhibited”.
